In PMC6573034 (Nature Communications, 2019):
Entries after “also recorded” stand apart in the source; their conditions may differ. Like-named read-outs stand apart in the source and are kept apart here.

Tests used:
SfMCT [1] = biological target: T1, SfMCT (Syntrophobacter fumaroxidans, UniProt A0LNN5); assay type: cell-based; conditions: for competition with [14C]L-lactate uptake (in words) / reduction of [14C]L-lactate uptake: competitor 1 mM; for Relative uptake of [14C]L-lactate (in %): WT SfMCT, competitor 1 mM final concentration, normalized to control without competitor
T1 construct: expressed in transfected cells; host or cells: E. coli JA202 (MC4100 glcA::cat lldP::kan), plasmid pEXT20-SfMCT-3C-10His
T1 sequence (A0LNN5 1-412): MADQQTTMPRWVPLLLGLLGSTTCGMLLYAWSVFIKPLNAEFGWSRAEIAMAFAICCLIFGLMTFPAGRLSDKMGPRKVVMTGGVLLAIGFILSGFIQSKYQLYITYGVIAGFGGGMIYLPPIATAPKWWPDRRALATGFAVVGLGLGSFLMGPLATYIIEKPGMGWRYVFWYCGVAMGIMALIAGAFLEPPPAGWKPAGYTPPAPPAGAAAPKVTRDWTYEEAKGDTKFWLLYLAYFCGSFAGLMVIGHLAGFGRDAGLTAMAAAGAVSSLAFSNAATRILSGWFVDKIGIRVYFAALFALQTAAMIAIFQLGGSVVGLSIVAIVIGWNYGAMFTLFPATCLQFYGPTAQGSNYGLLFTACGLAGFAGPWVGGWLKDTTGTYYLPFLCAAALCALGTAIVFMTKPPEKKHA
Method: (§1) The cultures were grown at 37 °C and 180 r.p.m. in an incubator shaker (Multitron, Infors HT). Protein expression was induced at OD600 ~0.5 by addition of IPTG to a final concentration of 0.25 mM. After 4 h, bacteria were pelleted (5,200 × g, 10 min, room temperature) and resuspended in uptake buffer (20 mM Bis-Tris propane-HCl (pH 6.7), 250 mM KCl) to a bacteria density of OD600 12. […] Furthermore, [3-3 H] propionic acid sodium salt ([^3H]propionate, American Radiolabeled Chemicals, specific activity 30 Ci/mmol), n-[2,3-3 H] butyric acid sodium salt ([^3H]butyrate, American Radiolabeled Chemicals, specific activity 120 Ci/mmol), and [1–14 C] pyruvic acid sodium salt ([^14C]pyruvate, specific activity 0.055 Ci/mmol American Radiolabeled Chemicals) were also used for transport experiments. […] Uptake experiments were performed in 2 ml reaction tubes (Eppendorf) at 30 °C under agitation (1,000 r.p.m., Thermomixer compact, Eppendorf). […] Bacteria were immediately pelleted by centrifugation (21,000 × g, 4 min, room temperature) and washed two times with 900 μl stop buffer. Finally, bacteria were lyzed in 50 μl 5% (w/v) sodium dodecylsulfate and transferred into a white 96-well plate (Optiplate, PerkinElmer). 150 µl of scintillation cocktail (MicroScint 40, PerkinElmer) were added before measuring each reaction for 2 min with a scintillation counter (TopCount NXT, PerkinElmer). For data analysis, the signal of the empty vector was subtracted from the transporter signal. […] Cpm values of each experiment were normalized with respect to the determined upper plateau value, i.e., the fitted upper plateau value corresponds to 100%. The arithmetic average of three independent experiments was calculated. Three independent and normalized pH-dependence curves were then averaged. For data analysis Prism6 (GraphPad Software) was used. […] Equal amounts of bacteria expressing SfMCT variants were loaded on 14% SDS/polyacrylamide gels. His-tagged transporters were detected using an anti-His5 (Qiagen, catalogue number 34660, primary antibody) at a dilution of 1:3,000 and a goat anti-mouse IgG (H + L) HRP conjugate antibody (Biorad, catalogue number 172-1011, secondary antibody) at a dilution of 1:2,500.

SfMCT [2] = biological target: T1, SfMCT; test: Uptake of [14C]L-lactate and other radiolabeled monocarboxylates into SfMCT expressing E. coli JA202; assay type: cell-based; conditions: for Uptake of radioligand by SfMCT (cpm): 0.1 µCi radiolabeled monocarboxylate, SfMCT-overexpressing bacteria; for transport by SfMCT (in words): uptake experiment using radiolabeled compound
Method: as §1

[3] = system: vector-transformed E. coli JA202; test: Uptake of radioligands into vector-transformed bacteria; assay type: cell-based; conditions: 0.1 µCi radiolabeled monocarboxylate; vector-transformed bacteria
Method: The cultures were grown at 37 °C and 180 r.p.m. in an incubator shaker (Multitron, Infors HT). Protein expression was induced at OD600 ~0.5 by addition of IPTG to a final concentration of 0.25 mM. After 4 h, bacteria were pelleted (5,200 × g, 10 min, room temperature) and resuspended in uptake buffer (20 mM Bis-Tris propane-HCl (pH 6.7), 250 mM KCl) to a bacteria density of OD600 12. […] Furthermore, [3-3 H] propionic acid sodium salt ([^3H]propionate, American Radiolabeled Chemicals, specific activity 30 Ci/mmol), n-[2,3-3 H] butyric acid sodium salt ([^3H]butyrate, American Radiolabeled Chemicals, specific activity 120 Ci/mmol), and [1–14 C] pyruvic acid sodium salt ([^14C]pyruvate, specific activity 0.055 Ci/mmol American Radiolabeled Chemicals) were also used for transport experiments. […] Uptake experiments were performed in 2 ml reaction tubes (Eppendorf) at 30 °C under agitation (1,000 r.p.m., Thermomixer compact, Eppendorf). […] Bacteria were immediately pelleted by centrifugation (21,000 × g, 4 min, room temperature) and washed two times with 900 μl stop buffer. Finally, bacteria were lyzed in 50 μl 5% (w/v) sodium dodecylsulfate and transferred into a white 96-well plate (Optiplate, PerkinElmer). 150 µl of scintillation cocktail (MicroScint 40, PerkinElmer) were added before measuring each reaction for 2 min with a scintillation counter (TopCount NXT, PerkinElmer). For data analysis, the signal of the empty vector was subtracted from the transporter signal. […] Cpm values of each experiment were normalized with respect to the determined upper plateau value, i.e., the fitted upper plateau value corresponds to 100%. The arithmetic average of three independent experiments was calculated. Three independent and normalized pH-dependence curves were then averaged. For data analysis Prism6 (GraphPad Software) was used. The expression of SfMCT variants in E. coli JA202 (MC4100 glcA::cat lldP::kan)[15] was verified by Western blotting. Equal amounts of bacteria expressing SfMCT variants were loaded on 14% SDS/polyacrylamide gels. His-tagged transporters were detected using an anti-His5 (Qiagen, catalogue number 34660, primary antibody) at a dilution of 1:3,000 and a goat anti-mouse IgG (H + L) HRP conjugate antibody (Biorad, catalogue number 172-1011, secondary antibody) at a dilution of 1:2,500.

SfMCT-F335A = biological target: T2, SfMCT-F335A (Syntrophobacter fumaroxidans, UniProt A0LNN5, F335A); test: [14C]L-lactate transport competition assay, SfMCT-F335A; assay type: cell-based; conditions: competition by 1 mM ACAC
T2 construct: expressed in transfected cells; host or cells: E. coli JA202, pEXT20-SfMCT-3C-10His mutant plasmid
Method: The cultures were grown at 37 °C and 180 r.p.m. in an incubator shaker (Multitron, Infors HT). Protein expression was induced at OD600 ~0.5 by addition of IPTG to a final concentration of 0.25 mM. After 4 h, bacteria were pelleted (5,200 × g, 10 min, room temperature) and resuspended in uptake buffer (20 mM Bis-Tris propane-HCl (pH 6.7), 250 mM KCl) to a bacteria density of OD600 12. […] Furthermore, [3-3 H] propionic acid sodium salt ([^3H]propionate, American Radiolabeled Chemicals, specific activity 30 Ci/mmol), n-[2,3-3 H] butyric acid sodium salt ([^3H]butyrate, American Radiolabeled Chemicals, specific activity 120 Ci/mmol), and [1–14 C] pyruvic acid sodium salt ([^14C]pyruvate, specific activity 0.055 Ci/mmol American Radiolabeled Chemicals) were also used for transport experiments. […] Cpm values of each experiment were normalized with respect to the determined upper plateau value, i.e., the fitted upper plateau value corresponds to 100%. The arithmetic average of three independent experiments was calculated. […] His-tagged transporters were detected using an anti-His5 (Qiagen, catalogue number 34660, primary antibody) at a dilution of 1:3,000 and a goat anti-mouse IgG (H + L) HRP conjugate antibody (Biorad, catalogue number 172-1011, secondary antibody) at a dilution of 1:2,500.

[4] = substrate: C[C@H](O)C(=O)O; test: cells, lysate or membranes; assay type: cell-based, Syntrophobacter fumaroxidans; conditions: other: SfMCT-mediated [14C]L-lactate uptake; average of three independent saturation experiments

T2 sequence (A0LNN5 whole entry F335A): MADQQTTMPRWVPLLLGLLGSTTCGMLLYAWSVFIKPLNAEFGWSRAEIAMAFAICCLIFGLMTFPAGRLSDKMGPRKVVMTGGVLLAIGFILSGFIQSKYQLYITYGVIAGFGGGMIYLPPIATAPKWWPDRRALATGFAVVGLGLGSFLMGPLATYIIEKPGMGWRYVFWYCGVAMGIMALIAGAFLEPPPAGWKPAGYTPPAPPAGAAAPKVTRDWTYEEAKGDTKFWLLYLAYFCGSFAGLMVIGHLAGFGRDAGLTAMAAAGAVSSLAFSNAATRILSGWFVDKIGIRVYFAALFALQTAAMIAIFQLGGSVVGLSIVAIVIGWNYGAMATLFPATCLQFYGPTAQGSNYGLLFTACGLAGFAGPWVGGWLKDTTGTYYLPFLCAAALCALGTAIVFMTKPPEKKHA

Q: With `C[C@@H](N)C(=O)O` [D-alanine] as the molecule, how does the “competition with [14C]L-lactate uptake (in words)” value (“competition” below) (SfMCT [1]) read?
A: absence of any competition

Q: Which “Relative uptake of [14C]L-lactate (in %)” value (SfMCT [1]) does the source give for `O=C(O)/C=C/C(=O)O` [fumarate] here?
A: 61.3393%

Q: How did the “Relative uptake of [14C]L-lactate (in %)” value (SfMCT [1]) turn out when `O=C(O)C(=O)O` [oxalate] was run?
A: 95.2988%

Q: And the “reduction of [14C]L-lactate uptake” value (SfMCT [1])?
A: 5–14%

Q: `C[C@@H](O)CC(=O)O` [3-HBA, (R)-3-hydroxybutyrate] was tested. Which “Relative uptake of [14C]L-lactate (in %)” value (SfMCT [1]) did it give?
A: 93.0096%

Q: What about the “reduction of [14C]L-lactate uptake” value (SfMCT [1]) of the same molecule?
A: 5–14%

Q: With `O=CO` [formate] as the molecule, how does the “Relative uptake of [14C]L-lactate (in %)” value (SfMCT [1]) read?
A: 96.2179%

Q: Which results are given for `CCC(=O)O` [propionate]?
A: Uptake of radioligand by SfMCT (cpm) (SfMCT [2]): 90.6667 cpm; transport by SfMCT (in words) (SfMCT [2]): not transported; also recorded: without being transported; Uptake of radioligand by vector (cpm) [3]: 198.333 cpm; Relative uptake of [14C]L-lactate (in %) (SfMCT [1]): 58.2752%; competition with [14C]L-lactate uptake (in words) (SfMCT [1]): significantly reduced

Q: Which results are given for `CC(=O)C(=O)O` [pyruvate]?
A: Uptake of radioligand by SfMCT (cpm) (SfMCT [2]): 2342.67 cpm; transport by SfMCT (in words) (SfMCT [2]): not transported; also recorded: does not transport; Uptake of radioligand by vector (cpm) [3]: 2551.22 cpm

Q: For `N#CC(C#N)=NNc1cccc(Cl)c1` [CCCP, carbonyl cyanide 3-chlorophenylhydrazone, reference compound], which “effect on uptake of [14C]L-lactate (in words)” value (SfMCT [1]; 20 µM CCCP) is on record?
A: completely abolished

Q: Which “effect on transport of [14C]L-lactate (in words)” value (SfMCT [1]; 20 µM valinomycin) does the source give for `CC(C)[C@@H]1NC(=O)[C@H](C)OC(=O)[C@@H](C(C)C)NC(=O)[C@@H](C(C)C)OC(=O)[C@H](C(C)C)NC(=O)[C@H](C)OC(=O)[C@@H](C(C)C)NC(=O)[C@@H](C(C)C)OC(=O)[C@H](C(C)C)NC(=O)[C@H](C)OC(=O)[C@@H](C(C)C)NC(=O)[C@@H](C(C)C)OC1=O` [valinomycin, reference compound] here?
A: no effect

Q: `CCCC(=O)O` [butyrate] was tested. Which “Uptake of radioligand by SfMCT (cpm)” value (SfMCT [2]) did it give?
A: 160.333 cpm

Q: What about the “transport by SfMCT (in words)” value (SfMCT [2]) of the same molecule?
A: not transported; also recorded: without being transported

Q: What about the “Uptake of radioligand by vector (cpm)” value [3] of the same molecule?
A: 197.333 cpm

Q: What about the “competition” value (SfMCT [1]) of the same molecule?
A: significantly reduced

Q: `O=C(O)CCC(=O)O` [succinate] was tested. Which “Relative uptake of [14C]L-lactate (in %)” value (SfMCT [1]) did it give?
A: 57.9601%

Q: With `C[C@H](N)C(=O)O` [L-alanine] as the molecule, how does the “competition” value (SfMCT [1]) read?
A: absence of any competition

Q: For `CC(=O)O` [acetate], which “Relative uptake of [14C]L-lactate (in %)” value (SfMCT [1]) is on record?
A: 90.2435%

Q: With `CC(=O)CC(=O)O` [ACAC, acetoacetate] as the molecule, how does the “Relative uptake of [14C]L-lactate (in %)” value (SfMCT-F335A) read?
A: 43.19%

Q: And the “Relative uptake of [14C]L-lactate (in %)” value (SfMCT-F335A; listed as acetoacetate)?
A: 43%

Q: What about the “Relative uptake of [14C]L-lactate (in %)” value (SfMCT [1]) of the same molecule?
A: 86.3974%

Q: And the “Relative uptake of [14C]L-lactate (in %)” value (SfMCT [1]; listed as acetoacetate)?
A: 86%

Q: And the “reduction of [14C]L-lactate uptake” value (SfMCT [1])?
A: 5–14%

Q: With `O=C(O)CC(=O)O` [malonate] as the molecule, how does the “Relative uptake of [14C]L-lactate (in %)” value (SfMCT [1]) read?
A: 91.3566%

Q: And the “reduction of [14C]L-lactate uptake” value (SfMCT [1])?
A: 5–14%

Q: With `O=C(O)CC(O)(CC(=O)O)C(=O)O` [citrate] as the molecule, how does the “reduction of [14C]L-lactate uptake” value (SfMCT [1]) read?
A: 5–14%

B1: SfMCT (Syntrophobacter fumaroxidans MPOB) (protein)
chain: T1 sequence (A0LNN5 1-412)
notes: expressed in transfected cells; host or cells: E. coli JA202 (MC4100 glcA::cat lldP::kan), plasmid pEXT20-SfMCT-3C-10His
Q: How did the Km [4] turn out when B1 was run?
A: 233 ± 22 µM
